Measurements taken from US20120107305A1, “Combination Therapy” (priority 2006, published 2012).

Assays:
[1] = system: A431 human tumour xenografts; experiment: A431 human vulval epidermoid carcinoma xenograft model; format: in vivo, female athymic mice (Swiss nu/nu); conditions: 20 days after randomisation; ZD6474 25 mg/kg/day p.o. once daily, bevacizumab 0.5 mg/kg i.p. twice a week; nude mice
Description: Experiments were conducted on female athymic mice (Swiss nu/nu genotype, ≧6 weeks of age). A431 human tumour xenografts were established in the experimental mice by injecting 1×10^7 cells per mouse, mixed in a ratio of 1:1 with Matrigel, subcutaneously in the dorsal flank in a volume of 100 μl. Tumour volumes were assessed at least twice weekly by bilateral Vernier calliper measurements. Mice were randomised into treatment groups when the tumour volume reached 0.2-0.4 cm^3 (day 0, this was after 7 days in Example 1 below).
Tumour growth inhibition from the start of treatment was assessed by comparison of the differences in tumour volume (median and geometric mean) between control and treated groups.
Control animals (Group I) received drug vehicles alone.

[2] = system: tumour models; conditions: once-daily oral administration; range of models; cited from earlier work
[3] = system: VEGF RTK; conditions: cited from earlier work

| Compound | A431 tumor volume, Geometric mean [1] [cm^3] | Anti-tumour activity [2] | Inhibition of VEGF RTK [3] |
| --- | --- | --- | --- |
| COc1cc2c(Nc3ccc(Br)cc3F)ncnc2cc1OCC1CCN(C)CC1 [ZD6474, 4-(4-bromo-2-fluoroanilino)-6-methoxy-7-(1-methylpiperidin-4-ylmethoxy)quinazoline] | 0.149 | broad-spectrum anti-tumour activity | potent inhibitor |
| Bevacizumab: recombinant humanised monoclonal antibody to the vascular endothelial growth factor ligand VEGF-A | 0.553 |  |  |
